Measurements from patent US20250144049A1, “METHODS, COMPOSITIONS, AND USES RELATED TO THE TREATMENT AND PREVENTION OF LEIGH SYNDROME” (Stealth BioTherapeutics Inc., priority 2023, published 2025).

Tests used:
[1] = Pharmacokinetics of Compound 3 after repeated (5 days) subcutaneous dosing; type: in vivo
Description: The volume of each dose delivered (mL/kg) was based on each individual animal's body weight. • This was a multiple dose terminal study dosed once per day over 5 days. Rats were taken down following their 5th and final dose. • Doses were administered in accordance with test facility standard operating procedures.
• Terminal blood samples were collected via cardiac puncture following inhalation anesthesia in accordance with test facility standard operating procedures. • Blood samples were collected into tubes with appropriate anticoagulant. Tubes were stored on wet ice until processed to plasma by centrifugation (3500 rpm at 5° C. for 10 minutes) within 20 minutes of collection. Sample aliquots of 100 μL were transferred into individual uniquely labeled matrix tubes and stored at nominal −80° C. until transferred to analytical chemistry for analysis. • Immediately following each terminal blood collection for all groups, animals were sacrificed and perfused with cold PBS. The following tissues were collected: heart and brain, in accordance with Table 4. • Plasma and tissue samples were processed for analysis by LC/MS/MS to determine the amounts/concentrations reported in the Figures.

[2] = system: Leigh syndrome (GM03672) fibroblasts; assay: RSL3 cytoprotection assay, Leigh fibroblasts; type: cell-based, human; conditions: RSL3, 4 hours, FIG. 9
Description: Patient fibroblasts were acquired from Coriell Institute for Medical Research (Camden, NJ, USA). GM03672 is an untransformed fibroblast cell line from a Leigh syndrome patient carrying an unknown mutation. GM08402 is an untransformed fibroblast from an apparently healthy individual. Cells were cultured at 37° C. at 5% CO2 in Eagle's Minimum Essential Medium (MEM, Corning), which was supplemented with Earle's salts and non-essential amino acids, 15% qualified fetal bovine serum, and 1% penicillin/streptomycin ([…]) to yield “Complete MEM.”
To initiate the RSL3 cytoprotection experiment, Healthy (GM08402) and Leigh syndrome (GM03672) fibroblasts were resuspended in Complete MEM. Cells were seeded at 10,000 cells per well in a clear, tissue cultured-treated, 96-well plate and incubated at 37° C. overnight. Following the incubation, supernatant was manually aspirated, taking care not to disrupt cells. […]. Luminescence units were quantified by GEN5 software on a BioTek SYNERGY neo2 plate reader (LUM filter).
RSL3 is an inhibitor of the enzyme glutathione peroxidase 4 (GPX4), which decreases lipid peroxides. RSL3 inhibition of GPX4 induces ferroptosis through iron-dependent accumulation of lipid ROS. In this assay, Healthy or Leigh fibroblasts were treated for 4 hours with RSL3 to induce ferroptosis or left untreated. Endogenous ATP levels were measured as an indicator of cellular viability using a commercially available kit (CellTiter-Glo® 2.0 Cell Viability Assay (Promega)).
[…]. […] Briefly, ferroptosis was induced with 1 μM RSL3 in healthy fibroblast cells and 375 nM RSL3 in fibroblasts from a patient with Leigh syndrome.
A preliminary experiment was performed to determine the effect of RSL3 injury on the fibroblasts of a healthy individual (cell line: GM08402) and the fibroblasts of a patient diagnosed with Leigh syndrome (cell line: GM03672).

[3] = system: Ndufs4-KO mouse model of Leigh syndrome; assay: Biomarker evaluation study in Ndufs4-KO mouse model of Leigh syndrome; type: in vivo; conditions: Ndufs4-KO mice
Description: Study design. A biomarker evaluation study was performed to test Compound 4 in a mouse model of Leigh syndrome (B6.129S4-Ndufs4^tm1.1Rpa/J; JAX Stock #027058). All studies were performed under the approved IACUC protocol at Jackson Laboratories Bar Harbor ME. Three groups of mice were included in this study: (1) wild-type (WT) C57BL/6J mice (n=8), each receiving 20 mg/kg Compound 4 subcutaneously once per day starting at postnatal age 21 days (P21); (2) Ndufs4-KO mice (homozygous knock outs (“HOM”)) (“HOM Veh”) (n=8), each receiving vehicle (5% Kolliphor-ELP in 1×PBS at a dosage of 10 mL/kg/day) subcutaneously once per day starting at P21; and (3) Ndufs4-KO mice (“HOM Comp. 4, 20 mg/kg”) (n=8), each receiving 20 mg/kg Compound 4 subcutaneously per day starting at P21. From the age of P30, body weight and body temperature was measured daily. At the age of P30 and P40 animals were made to perform a forced exercise on an inclining treadmill for up to 15 minutes or reaching exhaustion whichever happened first. Retro-orbital blood collection (for plasma) was performed after each exercise session for L-Lactic acid level analysis using an enzymatic reaction (biochemical) method with colorimetric read out. The mice were sacrificed and necropsied at P45 or upon reaching a humane endpoint as determined by body conditioning and neurological scoring method developed by Jackson Laboratory for this animal model. Terminal plasma was collected via cardiocentesis post-euthanasia for mitokine analysis (GDF-15 and FGF-21) using an ELISA kit (Abcam: ab216947, ab212160). The manufacturer protocol was followed to generate a standard curve. Plasma was diluted 1:5 in phosphate buffered saline for the ELISA.
Statistical analysis. Kaplan Meier plot followed by chi squared test & two-way ANOVA followed by Dunnett's multiple comparisons test were performed using GraphPad Prism version 10.0.0, GraphPad Software (Boston, Massachusetts) (www.graphpad.com).

[4] = system: Ndufs4-KO mouse model of Leigh syndrome; assay: Survival study in Ndufs4-KO mouse model of Leigh syndrome; type: in vivo; conditions: Ndufs4-KO mice
Description: Study design. A survival study was performed to test Compound 4 in a whole body (WB)-Ndufs4-KO mouse model of Leigh syndrome (B6.129S4-Ndufs4^tm1.1Rpa/J; JAX Stock #027058; “Ndufs4-KO mice”). Defects in the non-enzymatic, nuclear-encoded protein, NDUFS4 (NADH dehydrogenase (ubiquinone) Fe—S protein 4), cause a Leigh-like phenotype in humans that results in death within 3-16 months after birth. Exon 2 of the mouse Ndufs4 gene has been excised in this knockout allele. Three groups of mice were included in this study: (1) wild-type (WT) C57BL/6J mice (n=12), each receiving 20 mg/kg Compound 4 subcutaneously once per day starting at postnatal age 21 days (P21); (2) Ndufs4-KO mice (homozygous knock outs (“HOM”)) (“HOM Vehicle”) (n=9), each receiving vehicle (5% Kolliphor-ELP in 1×PBS at a dosage of 10 mL/kg/day) subcutaneously once per day starting at P21; and (3) Ndufs4-KO mice (“HOM Comp. 4, 20 mg/kg”) (n=13), each receiving 20 mg/kg Compound 4 subcutaneously per day starting at P21. All studies were performed under the approved IACUC protocol at Jackson Laboratories (Bar Harbor, ME). The mice were sacrificed and necropsied upon reaching a humane endpoint as determined by body conditioning and neurological scoring method developed by Jackson Laboratory for this animal model. Terminal plasma was collected via cardiocentesis post euthanasia for future analysis.
Statistical analysis. Kaplan Meier plot followed by chi squared test were performed using GraphPad Prism version 10.0.0, GraphPad Software (Boston, Massachusetts) (www.graphpad.com).

[5] = 20 mg/kg SC daily, terminal plasma, FIG. 24C

Row | SMILES | uptake to plasma and clearance rate, mouse versus rat ([1]; 20 mg/kg SC mouse vs 10 mg/kg SC rat (60 mg/m^2), 30 minutes to 24 hours, FIG. 17) | tolerability ([1]; rat, 10 mg/kg SC, 5 daily doses) | anti-ferroptosis properties compared among test articles [2] | survival proportion ([3]; 20 mg/kg SC daily from P21 until P46, vs vehicle, FIG. 24A) | exercise-induced lactic acidosis (plasma lactate) ([3]; 20 mg/kg SC daily, forced exercise at P30 and P40, FIG. 24B) | plasma FGF-21 [3, 5] | plasma GDF-15 [3, 5] | effect on survival, Gehan Breslow-Wilcoxon test P ([4]; 20 mg/kg SC daily from P21) | effect on survival, logrank test P ([4]; 20 mg/kg SC daily from P21) | survival ([4]; 20 mg/kg SC once per day from P21, vs vehicle, FIG. 23)
1 | CC1=C(C)C(=O)C(CC[C@@](C)(O)COCCC[Si](C)(C)C)=C(C)C1=O [Compound 3] | roughly equivalent | well tolerated | superior to Compounds 1, 4 and Vatiquinone | – | – | – | – | – | – | –
2 | CC1=C(C)C(=O)C(CC[C@](C)(O)CCCCCCCCC(F)(F)F)=C(C)C1=O [Compound 4] | – | – | roughly equivalent | improved survival proportion | mitigated exercise-induced lactic acidosis | normalizing trends | significantly normalized | < 0.0001 | < 0.0001 | significantly improved survival
